From patent US6756063B2, “Methods and compositions for the treatment of human and animal cancers” (Zoltan Laboratories, LLC, priority 2001, dated 2004)

Columns and labels:
[1] = test system: MDA-MB-468, human mammary gland (epithelial) adenocarcinoma, estrogen receptor negative; assay: Cell killing in MDA-MB-468; type: cell-based; details: in the above experiments
Description: (§1) To determine the effects of the present compositions, cells were grown in the indicated medium in either 12-well plates (to assess morphological changes and measure DNA synthesis); 6-well plates (for determination of apoptosis/necrosis); or 96-well plates (for determination of cellular proliferation by the MTT assay). All media contained 10% fetal bovine serum. In each experiment, the medium was replaced with fresh medium at 2 h. prior to treatment. Treatments were performed with sterile solutions of the compositions (made up either in the respective medium or water) for 1 min.-72 h. In some cases, treatments were done for 1 min., followed by incubation of washed cells for various time periods.
Cells were cultured in Leibovitz's L-15 medium and 10% fetal bovine serum; the medium was changed 6 h. prior to treatment. […] For DNA synthesis experiments, cells were incubated with [^3H]-thymidine (1 μCi/ml) between 120-130 mins. of treatment; for cell proliferation experiments, cells were trypsinized after treatment, re-plated, and viable cells counted 1 week later.

[2] = test system: MCF-7, human breast carcinoma cells, estrogen receptor positive; assay: Cell killing in MCF-7; type: cell-based; details: in the above experiments
Description: as §1
Cells were cultured in Dulbecco's modified Eagle's medium containing 2 mM L-glutamine and 10% fetal calf serum; the medium was changed 2 h prior to treatments. […] For DNA synthesis experiments, cells were incubated with [^3H]-thymidine ([…]) between 120-130 min of treatment; for cell proliferation experiments, cells were trypsinized after treatment, re-plated, and viable cells counted 1 week later.

[3] = test system: MDA-MB-231, human mammary gland (epithelial) adenocarcinoma, estrogen receptor negative; assay: Cell killing in MDA-MB-231; type: cell-based; details: for effectiveness of compositions comprising another dithiocarbonyl compared with PDC: same conditions as the PDC compositions
Description: as §1
Cells were cultured in Leibovitz's L-15 cell culture medium (Gibco) and 10% fetal bovine serum; the medium was changed 6 h. prior to treatment. […] For DNA synthesis experiments, cells were incubated with [^3H]-thymidine (1 μCi/ml) between 40-50 mins. of treatment; for cell proliferation experiments, cells were trypsinized after treatment, re-plated, and viable cells counted 1 week later.

[4] = test system: T-47D, human mammary gland (epithelial) ductal carcinoma, estrogen receptor positive; assay: Cell killing in T-47D; type: cell-based
Description: as §1
(§2) Cells were cultured in modified RPMI 1640 cell culture medium (see Gibco Catalogue), with 2 mM L-glutamine, 10 mM Hepes, 1 mM sodium pyruvate, 4.5 g/L glucose, 1.5 g/L sodium bicarbonate, 0.2 I.U. bovine insulin/ml, and 10% fetal bovine serum; the medium was changed 6 h. prior to treatment. […] For DNA synthesis experiments, cells were incubated with [^3H]-thymidine (1 μCi/ml) between 120-130 mins. of treatment; for cell proliferation experiments, cells were trypsinized after treatment, replated, and viable cells counted 1 week later.

[5] = test system: ZR-75-1, human mammary gland (epithelial) ductal carcinoma, ascites, estrogen receptor positive; assay: Cell killing in ZR-75-1; type: cell-based
Description: as §1
as §2, with “ZR-75-1, human mammary gland (epithelial) ductal carcinoma, ascites, estrogen receptor positive. Cells” for “Cells”, “1640” for “1640 cell culture”, “medium” for “medium (see Gibco Catalogue),”, “re-plated,” for “replated,”

[6] = test system: T-47D, 2R-75-1, A431, MDA-MB-231, AN3Ca, CaOV3; assay: Proliferation of cancer cell lines; type: cell-based
[7] = test system: normal cells; assay: Proliferation of normal cells; type: cell-based
[8] = test system: BDF1 adult female mice; assay: In vivo acute toxicological investigation, intraperitoneal; details: alone, 0.5-2 mM in physiological saline, followed 21 days
Description: Specified pathogen free (SPF) hygienic category first generation hybrid BDF1 (C57B1 female×DBA/2 male) adult female mice weighing 22-23 g were used. The animals were kept in macrolon cages at 22-24 C (45-55% humidity), with a lighting regimen of 12/12 h light/dark.
The animals were followed for 21 days and evaluated based on survival and body weight. Seven animals were evaluated for each treatment.

[9] = components at 50 μM PDC, 120 μM Zn, 100 μM EA, 3 mM DMETN, 2 h

## S=C(S)OC1CC2CC1C1CCCC21 (stereo not shown) [Composition D609]
[1]
  effectiveness of compositions comprising another dithiocarbonyl compared with PDC: as effective as those comprising PDC
[2]
  effectiveness of compositions comprising another dithiocarbonyl compared with PDC: as effective as those comprising PDC
[3]
  effectiveness of compositions comprising another dithiocarbonyl compared with PDC: as effective as compositions comprising PDC
[4]; in the above experiments
  effectiveness of compositions comprising another dithiocarbonyl compared with PDC: as effective as those comprising PDC
[5]; in the above experiments
  effectiveness of compositions comprising another dithiocarbonyl compared with PDC: as effective as those comprising PDC

## CN(C)CCO [DMETN, dimethylethanolamine]
[6]
  proliferation of cancer cell lines: inhibits proliferation
[7]
  proliferation of normal cells: generally increasing proliferation

## C=C(CC)C(=O)c1ccc(OCC(=O)O)c(Cl)c1Cl [EA, ethacrynic acid]
[3]; 60 μM EA alone, after 3 h
  cells killed: about 100%
[3]; components at 25 μM PDC, 60 μM Zn, 60 μM EA, 3 mM DMETN, 40 min
  cells killed: about 70%
[4]; [9]
  cells killed: about 100%
[5]; [9]
  cells killed: about 100%
[8]
  acute toxicity (survival and body weight): not toxic

## CCN(CC)C(=S)SSC(=S)N(CC)CC [disulfuram, tetraethylthiuram disulfide]
[3]
  effectiveness of compositions comprising another dithiocarbonyl compared with PDC: as effective as compositions comprising PDC
